Measured values from patent US9783527B2, “Indazole ureas and method of use” (AbbVie Inc., priority 2014, dated 2017).

Target: human Nav1.7 (Homo sapiens (Human), UniProt Q15858)
Assay: FRET-based membrane potential assay, recombinant human sodium channel Nav1.7
Format: cell-based
Conditions: HEK293 cells stably expressing recombinant human Nav1.7; depolarization with veratridine (EC80) + scorpion venom
In short: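 IC50 derived by four-parameter Hill fit of percent inhibition of depolarization, measured as peak F440-480/F565-625 ratio over baseline. Stable human Nav1.7 HEK293 cells, dye-loaded with CC2-DMPE and DiSBAC2(3)/VABSC-1 at room temperature, received compound 3 min ahead of veratridine (EC80) plus scorpion venom.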

Sequence of human Nav1.7 (Q15858 whole entry): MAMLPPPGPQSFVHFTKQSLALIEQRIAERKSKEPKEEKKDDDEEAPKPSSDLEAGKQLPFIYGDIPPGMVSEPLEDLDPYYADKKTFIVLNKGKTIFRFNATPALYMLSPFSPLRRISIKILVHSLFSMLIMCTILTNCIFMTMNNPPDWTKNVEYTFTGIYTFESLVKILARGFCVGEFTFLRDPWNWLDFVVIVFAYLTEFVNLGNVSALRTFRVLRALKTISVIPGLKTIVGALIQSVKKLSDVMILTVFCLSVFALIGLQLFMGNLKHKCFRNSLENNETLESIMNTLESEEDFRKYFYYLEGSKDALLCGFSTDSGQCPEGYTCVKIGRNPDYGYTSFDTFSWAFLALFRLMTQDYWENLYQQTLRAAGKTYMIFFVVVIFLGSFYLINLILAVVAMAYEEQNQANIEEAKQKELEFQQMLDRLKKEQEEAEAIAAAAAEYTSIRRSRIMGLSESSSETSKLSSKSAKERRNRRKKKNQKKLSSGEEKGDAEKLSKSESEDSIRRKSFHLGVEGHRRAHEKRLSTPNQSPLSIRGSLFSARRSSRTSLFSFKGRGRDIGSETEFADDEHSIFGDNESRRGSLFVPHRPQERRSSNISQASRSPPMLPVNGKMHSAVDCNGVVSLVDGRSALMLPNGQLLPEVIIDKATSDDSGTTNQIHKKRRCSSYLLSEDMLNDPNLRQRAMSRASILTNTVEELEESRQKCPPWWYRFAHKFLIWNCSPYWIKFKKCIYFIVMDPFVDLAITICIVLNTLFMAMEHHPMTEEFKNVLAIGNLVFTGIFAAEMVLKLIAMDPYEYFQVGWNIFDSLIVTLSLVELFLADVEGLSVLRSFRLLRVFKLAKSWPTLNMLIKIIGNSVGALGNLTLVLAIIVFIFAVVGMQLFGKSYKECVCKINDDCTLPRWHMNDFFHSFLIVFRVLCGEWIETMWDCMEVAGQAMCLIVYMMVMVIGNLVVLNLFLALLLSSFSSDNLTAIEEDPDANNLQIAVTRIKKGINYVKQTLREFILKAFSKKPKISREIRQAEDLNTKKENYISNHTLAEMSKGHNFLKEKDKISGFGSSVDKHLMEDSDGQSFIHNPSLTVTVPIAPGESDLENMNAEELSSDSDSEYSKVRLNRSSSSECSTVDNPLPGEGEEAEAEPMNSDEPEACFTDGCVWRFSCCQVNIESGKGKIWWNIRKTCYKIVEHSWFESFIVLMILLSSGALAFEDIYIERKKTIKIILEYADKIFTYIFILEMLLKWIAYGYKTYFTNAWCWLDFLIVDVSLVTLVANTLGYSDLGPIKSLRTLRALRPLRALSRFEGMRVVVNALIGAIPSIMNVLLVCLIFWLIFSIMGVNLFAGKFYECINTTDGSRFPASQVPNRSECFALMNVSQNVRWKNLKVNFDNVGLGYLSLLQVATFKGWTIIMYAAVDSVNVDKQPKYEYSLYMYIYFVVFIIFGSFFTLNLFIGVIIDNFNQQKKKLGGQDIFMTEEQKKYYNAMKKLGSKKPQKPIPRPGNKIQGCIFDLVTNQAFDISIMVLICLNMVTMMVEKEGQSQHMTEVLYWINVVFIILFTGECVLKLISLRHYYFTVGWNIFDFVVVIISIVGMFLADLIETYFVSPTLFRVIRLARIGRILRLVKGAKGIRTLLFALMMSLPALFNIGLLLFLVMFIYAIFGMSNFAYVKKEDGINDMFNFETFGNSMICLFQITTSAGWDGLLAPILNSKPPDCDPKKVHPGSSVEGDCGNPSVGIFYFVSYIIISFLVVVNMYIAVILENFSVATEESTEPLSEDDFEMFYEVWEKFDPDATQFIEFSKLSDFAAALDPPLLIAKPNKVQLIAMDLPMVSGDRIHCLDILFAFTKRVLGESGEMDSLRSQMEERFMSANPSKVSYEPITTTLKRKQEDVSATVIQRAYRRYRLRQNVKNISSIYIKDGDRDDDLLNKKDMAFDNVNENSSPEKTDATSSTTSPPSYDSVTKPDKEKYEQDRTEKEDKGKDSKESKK

Compared with `Cc1nnc(CN2CCN(c3cccc4c3cnn4-c3ccc(F)cc3F)C2=O)s1` [Example 234, 1-[1-(2,4-difluorophenyl)-1H-indazol-4-yl]-3-[(5-methyl-1,3,4-thiadiazol-2-yl)methyl]imidazolidin-2-one], `Cc1nc(CN2CCN(c3cccc4c3cnn4-c3ccc(F)cc3F)C2=O)cs1` [Example 243, 1-[1-(2,4-difluorophenyl)-1H-indazol-4-yl]-3-[(2-methyl-1,3-thiazol-4-yl)methyl]imidazolidin-2-one] is 1.8-fold lower in IC50: 2900 nM for the first, 1610 nM for the second. The second is the more potent here.

Compared with `O=C1N(Cc2ncco2)CCN1c1cccc2c1cnn2-c1ccc(C(F)(F)F)cc1` [Example 235, 1-(1,3-oxazol-2-ylmethyl)-3-{1-[4-(trifluoromethyl)phenyl]-1H-indazol-4-yl}imidazolidin-2-one], `O=C1N(Cc2cocn2)CCN1c1cccc2c1cnn2-c1ccc(C(F)(F)F)cc1` [Example 242, 1-(1,3-oxazol-4-ylmethyl)-3-{1-[4-(trifluoromethyl)phenyl]-1H-indazol-4-yl}imidazolidin-2-one] is 2.9-fold higher in IC50: 1130 nM for the first, 3330 nM for the second. The first is the more potent here.

Going from `Cc1noc(C)c1N1CCN(c2cccc3c2cnn3-c2ccccc2F)C1=O` [Example 236, 1-(3,5-dimethyl-1,2-oxazol-4-yl)-3-[1-(2-fluorophenyl)-1H-indazol-4-yl]imidazolidin-2-one] to `Cc1noc(C)c1CN1CCCN(c2cccc3c2cnn3-c2ccccc2F)C1=O` [Example 258, 1-[(3,5-dimethyl-1,2-oxazol-4-yl)methyl]-3-[1-(2-fluorophenyl)-1H-indazol-4-yl]tetrahydropyrimidin-2(1H)-one], the IC50 rises from 924 nM to 11000 nM (12-fold). The first is the more potent here.

First: CC(C)c1cnc(CN2CCN(c3cccc4c3cnn4-c3ccccc3F)C2=O)o1 [Example 237, 1-[1-(2-fluorophenyl)-1H-indazol-4-yl]-3-[(5-isopropyl-1,3-oxazol-2-yl)methyl]imidazolidin-2-one]
Second: CC(C)c1cc(CN2CCN(c3cccc4c3cnn4-c3ccccc3F)C2=O)no1 [Example 251, 1-[1-(2-fluorophenyl)-1H-indazol-4-yl]-3-[(5-isopropyl-1,2-oxazol-3-yl)methyl]imidazolidin-2-one]
The IC50 of the first is 3.1-fold lower: 667 nM for the first, 2060 nM for the second.

Compared with `Cc1nc(CN2CCN(c3cccc4c3cnn4-c3ccccc3F)C2=O)oc1C` [Example 238, 1-[(4,5-dimethyl-1,3-oxazol-2-yl)methyl]-3-[1-(2-fluorophenyl)-1H-indazol-4-yl]imidazolidin-2-one], `Cc1nc(CN2CCN(c3cccc4c3cnn4-c3ccccc3F)C2=O)c(C)s1` [Example 239, 1-[(2,5-dimethyl-1,3-thiazol-4-yl)methyl]-3-[1-(2-fluorophenyl)-1H-indazol-4-yl]imidazolidin-2-one] is 1.7-fold lower in IC50: 586 nM for the first, 352 nM for the second.

First: Cc1nnc(CN2CCN(c3cccc4c3cnn4-c3ccc(C(F)(F)F)cc3)C2=O)s1 [Example 240, 1-[(5-methyl-1,3,4-thiadiazol-2-yl)methyl]-3-{1-[4-(trifluoromethyl)phenyl]-1H-indazol-4-yl}imidazolidin-2-one]
Second: Cc1cnc(CN2CCN(c3cccc4c3cnn4-c3ccccc3F)C2=O)s1 [Example 263, 1-[1-(2-fluorophenyl)-1H-indazol-4-yl]-3-[(5-methyl-1,3-thiazol-2-yl)methyl]imidazolidin-2-one]
The IC50 of the first is 27-fold higher: 13400 nM for the first, 494 nM for the second.

Compared with `C[C@@H]1CN(c2cccc3c2cnn3-c2ccccc2F)C(=O)N1C(=O)OC(C)(C)C` [Example 241, tert-butyl (5R)-3-[1-(2-fluorophenyl)-1H-indazol-4-yl]-5-methyl-2-oxoimidazolidine-1-carboxylate], `CC(C)(C)OC(=O)N1CC(N2CCN(c3cccc4c3cnn4-c3ccccc3F)C2=O)C1` [Example 267, tert-butyl 3-{3-[1-(2-fluorophenyl)-1H-indazol-4-yl]-2-oxoimidazolidin-1-yl}azetidine-1-carboxylate] is 2.2-fold lower in IC50: 2350 nM for the first, 1090 nM for the second.

`Cc1cc(CN2CCN(c3cccc4c3cnn4-c3ccccc3F)C2=O)on1` [Example 244, 1-[1-(2-fluorophenyl)-1H-indazol-4-yl]-3-[(3-methyl-1,2-oxazol-5-yl)methyl]imidazolidin-2-one] and `CC(C)c1cc(CN2CCN(c3cccc4c3cnn4-c3ccccc3F)C2=O)on1` [Example 249, 1-[1-(2-fluorophenyl)-1H-indazol-4-yl]-3-[(3-isopropyl-1,2-oxazol-5-yl)methyl]imidazolidin-2-one] are within 1.5-fold of each other in IC50: 3080 nM for the first, 2430 nM for the second.

First: Cc1scnc1CN1CCN(c2cccc3c2cnn3-c2ccccc2F)C1=O [Example 245, 1-[1-(2-fluorophenyl)-1H-indazol-4-yl]-3-[(5-methyl-1,3-thiazol-4-yl)methyl]imidazolidin-2-one]
Second: Cc1nocc1CN1CCN(c2cccc3c2cnn3-c2ccccc2F)C1=O [Example 264, 1-[1-(2-fluorophenyl)-1H-indazol-4-yl]-3-[(3-methyl-1,2-oxazol-4-yl)methyl]imidazolidin-2-one]
The IC50 of the first is 16-fold lower: 207 nM for the first, 3350 nM for the second. The first is the more potent here.

Going from `C[C@@H]1CN(c2cccc3c2cnn3-c2ccccc2F)C(=O)N1` [Example 246, (4R)-1-[1-(2-fluorophenyl)-1H-indazol-4-yl]-4-methylimidazolidin-2-one] to `O=C1N(c2cccc3c2cnn3-c2ccccc2F)CCN1C1CNC1` [Example 268, 1-(azetidin-3-yl)-3-[1-(2-fluorophenyl)-1H-indazol-4-yl]imidazolidin-2-one], the IC50 rises from 2980 nM to 15000 nM (5-fold).

First: C[C@@H]1CN(c2cccc3c2cnn3-c2ccccc2F)C(=O)N1Cc1ncco1 [Example 247, (4R)-1-[1-(2-fluorophenyl)-1H-indazol-4-yl]-4-methyl-3-(1,3-oxazol-2-ylmethyl)imidazolidin-2-one]
Second: O=C1N(Cc2ncco2)CCCN1c1cccc2c1cnn2-c1ccccc1F [Example 255, 1-[1-(2-fluorophenyl)-1H-indazol-4-yl]-3-(1,3-oxazol-2-ylmethyl)tetrahydropyrimidin-2(1H)-one]
The IC50 of the first is 5.6-fold lower: 981 nM for the first, 5510 nM for the second. The first is the more potent here.

First: COc1nccnc1CN1CCN(c2cccc3c2cnn3-c2ccccc2F)C1=O [Example 248, 1-[1-(2-fluorophenyl)-1H-indazol-4-yl]-3-[(3-methoxypyrazin-2-yl)methyl]imidazolidin-2-one]
Second: Cc1cnc(CN2CCN(c3cccc4c3cnn4-c3ccccc3F)C2=O)cn1 [Example 257, 1-[1-(2-fluorophenyl)-1H-indazol-4-yl]-3-[(5-methylpyrazin-2-yl)methyl]imidazolidin-2-one]
The IC50 of the first is 3-fold lower: 1040 nM for the first, 3090 nM for the second. The first is the more potent here.

`CCc1nc(CN2CCN(c3cccc4c3cnn4-c3ccccc3F)C2=O)cs1` [Example 250, 1-[(2-ethyl-1,3-thiazol-4-yl)methyl]-3-[1-(2-fluorophenyl)-1H-indazol-4-yl]imidazolidin-2-one] and `COCc1nc(CN2CCN(c3cccc4c3cnn4-c3ccccc3F)C2=O)cs1` [Example 254, 1-[1-(2-fluorophenyl)-1H-indazol-4-yl]-3-{[2-(methoxymethyl)-1,3-thiazol-4-yl]methyl}imidazolidin-2-one] are within 1.5-fold of each other in IC50: 1140 nM for the first, 825 nM for the second.

Going from `O=C1N(Cc2cc(C3CC3)on2)CCN1c1cccc2c1cnn2-c1ccccc1F` [Example 252, 1-[(5-cyclopropyl-1,2-oxazol-3-yl)methyl]-3-[1-(2-fluorophenyl)-1H-indazol-4-yl]imidazolidin-2-one] to `CCc1nnc(CN2CCN(c3cccc4c3cnn4-c3ccccc3F)C2=O)o1` [Example 261, 1-[(5-ethyl-1,3,4-oxadiazol-2-yl)methyl]-3-[1-(2-fluorophenyl)-1H-indazol-4-yl]imidazolidin-2-one], the IC50 rises from 1760 nM to 3410 nM (1.9-fold).

Compared with `Cc1noc([C@@H](C)N2CCN(c3cccc4c3cnn4-c3ccc(F)cc3F)C2=O)n1` [Example 253, 1-[1-(2,4-difluorophenyl)-1H-indazol-4-yl]-3-[(1R)-1-(3-methyl-1,2,4-oxadiazol-5-yl)ethyl]imidazolidin-2-one], `CC(C)c1nnc(CN2CCN(c3cccc4c3cnn4-c3ccccc3F)C2=O)o1` [Example 256, 1-[1-(2-fluorophenyl)-1H-indazol-4-yl]-3-[(5-isopropyl-1,3,4-oxadiazol-2-yl)methyl]imidazolidin-2-one] is 3.3-fold higher in IC50: 932 nM for the first, 3120 nM for the second.

First: Cc1cncc(CN2CCCN(c3cccc4c3cnn4-c3ccccc3F)C2=O)n1 [Example 259, 1-[1-(2-fluorophenyl)-1H-indazol-4-yl]-3-[(6-methylpyrazin-2-yl)methyl]tetrahydropyrimidin-2(1H)-one]
Second: Cc1nnc(CN2CCCN(c3cccc4c3cnn4-c3ccccc3F)C2=O)o1 [Example 260, 1-[1-(2-fluorophenyl)-1H-indazol-4-yl]-3-[(5-methyl-1,3,4-oxadiazol-2-yl)methyl]tetrahydropyrimidin-2(1H)-one]
The IC50 of the first is 6-fold lower: 3360 nM for the first, 20000 nM for the second.

`CC(C)(C)c1nnc(CN2CCN(c3cccc4c3cnn4-c3ccccc3F)C2=O)o1` [Example 262, 1-[(5-tert-butyl-1,3,4-oxadiazol-2-yl)methyl]-3-[1-(2-fluorophenyl)-1H-indazol-4-yl]imidazolidin-2-one] and `O=C1CCC(N2CCN(c3cccc4c3cnn4-c3ccccc3F)C2=O)CC1` [Example 266, 1-[1-(2-fluorophenyl)-1H-indazol-4-yl]-3-(4-oxocyclohexyl)imidazolidin-2-one] are within 1.5-fold of each other in IC50: 2520 nM for the first, 3020 nM for the second.

`O=C1N(c2cccc3c2cnn3-c2ccccc2F)CCN1[C@H]1CC[C@H](O)CC1` [Example 265, 1-[1-(2-fluorophenyl)-1H-indazol-4-yl]-3-(trans-4-hydroxycyclohexyl)imidazolidin-2-one] and `O=C1N(c2cccc3c2cnn3-c2ccccc2F)CCN1C1CN(C(=O)C2(O)CC2)C1` [Example 269, 1-[1-(2-fluorophenyl)-1H-indazol-4-yl]-3-{1-[(1-hydroxycyclopropyl)carbonyl]azetidin-3-yl}imidazolidin-2-one] are within 1.5-fold of each other in IC50: 8150 nM for the first, 5790 nM for the second.

`NC(=O)C(=O)N1CC(N2CCN(c3cccc4c3cnn4-c3ccccc3F)C2=O)C1` [Example 270, 2-(3-{3-[1-(2-fluorophenyl)-1H-indazol-4-yl]-2-oxoimidazolidin-1-yl}azetidin-1-yl)-2-oxoacetamide] was tested, and the IC50 was 5870 nM.
